Results: ChEMBL document CHEMBL5380868, “Filling a nick in NIK: Extending the half-life of a NIK inhibitor through structure-based drug design” (Bioorg Med Chem Lett, 2023)
pIC50: −log10 of the molar value. Values after ≈ are worked out from the molar mass of the structure shown. Values belong to the compound of their own block, whether it stands above or below them.

What was measured:
[1] = Plasma clearance in iv dosed C57BL/6J mouse; format: ADME, organism-based
[2] = Hepatic clearance in dog hepatocytes; format: ADME, cell-based, Canis lupus familiaris, Hepatocyte
[3] = biological target: T1, Mitogen-activated protein kinase kinase kinase 14 (Homo sapiens, UniProt Q99558); test: Inhibition of NIK (unknown origin) catalyzed ATP hydrolysis by fluorescence polarization method
T1 sequence (Q99558 whole entry): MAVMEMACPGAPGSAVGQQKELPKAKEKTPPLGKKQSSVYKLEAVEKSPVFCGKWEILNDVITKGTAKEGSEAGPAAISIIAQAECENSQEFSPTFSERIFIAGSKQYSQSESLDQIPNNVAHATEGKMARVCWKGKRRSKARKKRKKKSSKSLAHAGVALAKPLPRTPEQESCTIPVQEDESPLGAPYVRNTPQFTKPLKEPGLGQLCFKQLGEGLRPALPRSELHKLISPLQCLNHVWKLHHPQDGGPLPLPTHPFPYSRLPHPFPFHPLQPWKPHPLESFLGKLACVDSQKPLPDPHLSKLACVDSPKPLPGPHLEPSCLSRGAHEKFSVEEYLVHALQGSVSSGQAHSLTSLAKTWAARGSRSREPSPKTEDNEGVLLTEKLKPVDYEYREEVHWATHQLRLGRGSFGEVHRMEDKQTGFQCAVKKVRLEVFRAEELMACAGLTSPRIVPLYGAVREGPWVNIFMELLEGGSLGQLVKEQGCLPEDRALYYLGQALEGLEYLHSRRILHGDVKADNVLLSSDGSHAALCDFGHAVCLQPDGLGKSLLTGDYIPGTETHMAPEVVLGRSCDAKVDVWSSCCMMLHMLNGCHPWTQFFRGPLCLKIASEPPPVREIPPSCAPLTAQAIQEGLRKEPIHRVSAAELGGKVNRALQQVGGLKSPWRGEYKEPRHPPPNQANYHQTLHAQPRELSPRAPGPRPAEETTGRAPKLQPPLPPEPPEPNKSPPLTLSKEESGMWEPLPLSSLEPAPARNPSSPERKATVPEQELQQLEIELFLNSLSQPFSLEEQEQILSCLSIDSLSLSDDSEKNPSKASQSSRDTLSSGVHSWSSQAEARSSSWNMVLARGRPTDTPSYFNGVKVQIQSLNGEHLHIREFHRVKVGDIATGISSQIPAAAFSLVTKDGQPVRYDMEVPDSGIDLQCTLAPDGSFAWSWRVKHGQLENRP

[4] = Unbound plasma clearance in iv dosed C57BL/6J mouse; format: ADME, organism-based; conditions: in vivo
[5] = Kinetic solubility of compound in PBS at pH 7.4; format: physicochemical; conditions: read-out: Kinetic_solubility
[6] = Oral bioavailability in non-naive Beagle dog at 1 mg/kg; format: ADME, organism-based, Canis lupus familiaris; conditions: in vivo
[7] = biological target: Leucine-rich repeat serine/threonine-protein kinase 2 (Homo sapiens) (UniProt Q5S007); test: Inhibition of recombinant human LRRK2 at 1 uM relative to control
Leucine-rich repeat serine/threonine-protein kinase 2 (Homo sapiens), sequence (Q5S007 whole entry): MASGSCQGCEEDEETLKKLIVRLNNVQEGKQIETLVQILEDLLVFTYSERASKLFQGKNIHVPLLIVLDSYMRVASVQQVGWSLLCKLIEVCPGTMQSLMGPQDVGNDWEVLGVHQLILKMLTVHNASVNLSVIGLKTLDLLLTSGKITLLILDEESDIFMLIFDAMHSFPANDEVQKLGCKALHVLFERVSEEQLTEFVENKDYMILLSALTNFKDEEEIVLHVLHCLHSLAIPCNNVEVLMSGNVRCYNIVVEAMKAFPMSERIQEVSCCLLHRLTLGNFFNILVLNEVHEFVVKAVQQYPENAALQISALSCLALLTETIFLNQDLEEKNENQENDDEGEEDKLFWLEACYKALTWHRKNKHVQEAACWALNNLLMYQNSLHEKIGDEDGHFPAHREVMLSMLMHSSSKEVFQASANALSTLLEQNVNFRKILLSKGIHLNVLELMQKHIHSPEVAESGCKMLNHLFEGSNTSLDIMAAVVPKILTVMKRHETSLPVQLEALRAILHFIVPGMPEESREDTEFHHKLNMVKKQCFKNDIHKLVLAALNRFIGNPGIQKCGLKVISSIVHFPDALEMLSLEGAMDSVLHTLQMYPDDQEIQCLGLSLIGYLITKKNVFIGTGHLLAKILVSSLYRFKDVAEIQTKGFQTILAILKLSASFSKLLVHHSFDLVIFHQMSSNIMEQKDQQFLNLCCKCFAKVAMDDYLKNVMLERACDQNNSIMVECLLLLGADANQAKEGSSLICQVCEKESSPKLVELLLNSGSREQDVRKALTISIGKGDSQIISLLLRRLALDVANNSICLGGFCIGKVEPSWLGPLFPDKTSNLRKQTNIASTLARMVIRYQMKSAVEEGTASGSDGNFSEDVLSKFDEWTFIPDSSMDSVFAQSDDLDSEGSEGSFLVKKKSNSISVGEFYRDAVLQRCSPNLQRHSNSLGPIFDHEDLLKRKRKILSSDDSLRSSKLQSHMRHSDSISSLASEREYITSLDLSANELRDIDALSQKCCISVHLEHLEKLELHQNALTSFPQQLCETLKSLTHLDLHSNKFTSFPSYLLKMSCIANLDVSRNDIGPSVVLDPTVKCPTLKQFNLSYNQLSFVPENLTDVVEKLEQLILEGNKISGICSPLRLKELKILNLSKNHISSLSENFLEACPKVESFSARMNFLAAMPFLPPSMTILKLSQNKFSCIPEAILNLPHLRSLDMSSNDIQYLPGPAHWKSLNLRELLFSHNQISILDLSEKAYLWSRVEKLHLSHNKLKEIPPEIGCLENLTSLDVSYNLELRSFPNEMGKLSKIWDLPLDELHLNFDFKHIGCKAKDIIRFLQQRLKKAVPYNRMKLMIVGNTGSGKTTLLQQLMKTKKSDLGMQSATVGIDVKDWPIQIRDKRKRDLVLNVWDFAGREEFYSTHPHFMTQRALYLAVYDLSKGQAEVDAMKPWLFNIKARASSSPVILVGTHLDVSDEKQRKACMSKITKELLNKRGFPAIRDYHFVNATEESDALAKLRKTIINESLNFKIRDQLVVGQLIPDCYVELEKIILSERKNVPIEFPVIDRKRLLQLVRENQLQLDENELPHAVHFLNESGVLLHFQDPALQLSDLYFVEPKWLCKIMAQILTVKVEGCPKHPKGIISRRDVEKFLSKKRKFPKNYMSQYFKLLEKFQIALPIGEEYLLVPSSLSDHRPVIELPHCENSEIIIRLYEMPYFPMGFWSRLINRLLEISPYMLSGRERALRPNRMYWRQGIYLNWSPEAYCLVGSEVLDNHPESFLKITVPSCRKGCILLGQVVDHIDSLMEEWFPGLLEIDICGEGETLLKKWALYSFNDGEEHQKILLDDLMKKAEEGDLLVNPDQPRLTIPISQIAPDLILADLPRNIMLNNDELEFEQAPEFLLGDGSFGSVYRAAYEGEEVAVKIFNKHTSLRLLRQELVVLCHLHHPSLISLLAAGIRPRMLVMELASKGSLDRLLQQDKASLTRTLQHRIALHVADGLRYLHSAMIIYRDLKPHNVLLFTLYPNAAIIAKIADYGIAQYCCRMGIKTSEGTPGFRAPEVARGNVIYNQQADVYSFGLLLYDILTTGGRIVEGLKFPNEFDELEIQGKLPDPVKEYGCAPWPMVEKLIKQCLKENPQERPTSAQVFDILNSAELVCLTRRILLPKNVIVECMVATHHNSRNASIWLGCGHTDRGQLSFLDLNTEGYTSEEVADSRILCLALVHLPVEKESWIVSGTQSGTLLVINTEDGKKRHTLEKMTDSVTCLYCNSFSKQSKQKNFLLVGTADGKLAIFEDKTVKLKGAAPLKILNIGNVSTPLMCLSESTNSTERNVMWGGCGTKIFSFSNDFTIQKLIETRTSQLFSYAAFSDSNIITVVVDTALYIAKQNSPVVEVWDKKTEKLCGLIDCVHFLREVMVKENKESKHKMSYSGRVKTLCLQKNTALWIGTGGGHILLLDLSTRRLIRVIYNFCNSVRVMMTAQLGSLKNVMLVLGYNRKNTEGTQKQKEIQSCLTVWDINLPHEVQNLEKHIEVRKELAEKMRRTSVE

[8] = Hepatic clearance in mouse hepatocytes; format: ADME, cell-based, Hepatocyte
[9] = Hepatic clearance in dog liver microsomes; format: ADME, Canis lupus familiaris, Microsome
[10] = biological target: T1, Mitogen-activated protein kinase kinase kinase 14; test: Inhibition of NIK in human primary B cell assessed as inhibition of CD40L-stimulated nuclear translocation of p52 in cell based assay
[11] = Oral bioavailability in Cynomolgus monkey at 1 mg/kg; format: ADME, organism-based, Macaca fascicularis; conditions: in vivo
[12] = Unbound plasma clearance in iv dosed Sprague-Dawley rat; format: ADME, organism-based; conditions: in vivo
[13] = Hepatic clearance in cynomolgus monkey liver microsomes; format: ADME, Macaca fascicularis, Microsome
[14] = biological target: Mitogen-activated protein kinase kinase kinase kinase 5 (Homo sapiens) (UniProt Q9Y4K4); test: Inhibition of recombinant human KHS1 at 1 uM relative to control
[15] = Inhibition of Herpes simplex virus thymidine kinase in HEK293 cells by Renilla luciferase based assay; format: cell-based; conditions: Herpesviridae sp.
[16] = Hepatic clearance in cynomolgus monkey hepatocytes; format: ADME, cell-based, Macaca fascicularis, Hepatocyte
[17] = Lipophilicity, logD of the compound at pH 7.4 by shake flask method based LC-MS analysis; format: physicochemical; conditions: buffer
[18] = Volume of distribution in Sprague-Dawley rat; format: ADME; conditions: in vivo
[19] = Half life in iv dosed Cynomolgus monkey; format: ADME, organism-based, Macaca fascicularis; conditions: in vivo
[20] = Plasma clearance in iv dosed non-naive Beagle dog; format: ADME, organism-based, Canis lupus familiaris
[21] = Unbound plasma clearance in iv dosed Cynomolgus monkey; format: ADME, organism-based, Macaca fascicularis; conditions: in vivo
[22] = Volume of distribution in non-naive Beagle dog; format: ADME, Canis lupus familiaris; conditions: in vivo
[23] = Hepatic clearance in human hepatocytes; format: ADME, cell-based, Hepatocyte
[24] = Half life in iv dosed Sprague-Dawley rat; format: ADME, organism-based; conditions: in vivo
[25] = Half life in iv dosed non-naive Beagle dog; format: ADME, organism-based, Canis lupus familiaris; conditions: in vivo
[26] = Hepatic clearance in rat liver microsomes; format: ADME, Microsome
[27] = Hepatic clearance in rat hepatocytes; format: ADME, cell-based, Hepatocyte
[28] = Oral bioavailability in C57BL/6J mouse at 10 mg/kg; format: ADME, organism-based; conditions: in vivo
[29] = Unbound plasma clearance in iv dosed non-naive Beagle dog; format: ADME, organism-based, Canis lupus familiaris; conditions: in vivo
[30] = biological target: T1, Mitogen-activated protein kinase kinase kinase 14; test: Inhibition of NIK in HUVEC cells assessed as inhibition of anti-[…]-stimulated p52 nuclear translocation; format: cell-based
[31] = Volume of distribution in Cynomolgus monkey; format: ADME, Macaca fascicularis; conditions: in vivo
[32] = Half life in iv dosed C57BL/6J mouse; format: ADME, organism-based; conditions: in vivo
[33] = Hepatic clearance in mouse liver microsomes; format: ADME, Microsome
[34] = Plasma clearance in iv dosed Sprague-Dawley rat; format: ADME, organism-based
[35] = biological target: T1, Mitogen-activated protein kinase kinase kinase 14; test: Inhibition of NIK in HEK-293 cells assessed as inhibition of NIK-dependent NF-kappaB response element expression by firefly luciferase reporter gene based analysis; format: cell-based, HEK293
[36] = Plasma clearance in iv dosed Cynomolgus monkey; format: ADME, organism-based, Macaca fascicularis; conditions: in vivo
HEK293 = test: Inhibition of Herpes simplex virus thymidine kinase in HEK293 cells assessed as maximal inhibition by Renilla luciferase based assay relative to control; format: cell-based; conditions: Herpesviridae sp.
[37] = Volume of distribution in C57BL/6J mouse; format: ADME; conditions: in vivo
[38] = Hepatic clearance in human liver microsomes; format: ADME, Microsome
[39] = Oral bioavailability in Sprague-Dawley rat at 5 mg/kg; format: ADME, organism-based; conditions: in vivo
[40] = biological target: Serine/threonine-protein kinase D1 (Homo sapiens) (UniProt Q15139); test: Inhibition of recombinant human PKD1 at 1 uM relative to control
Serine/threonine-protein kinase D1 (Homo sapiens), sequence (Q15139 whole entry, looked up): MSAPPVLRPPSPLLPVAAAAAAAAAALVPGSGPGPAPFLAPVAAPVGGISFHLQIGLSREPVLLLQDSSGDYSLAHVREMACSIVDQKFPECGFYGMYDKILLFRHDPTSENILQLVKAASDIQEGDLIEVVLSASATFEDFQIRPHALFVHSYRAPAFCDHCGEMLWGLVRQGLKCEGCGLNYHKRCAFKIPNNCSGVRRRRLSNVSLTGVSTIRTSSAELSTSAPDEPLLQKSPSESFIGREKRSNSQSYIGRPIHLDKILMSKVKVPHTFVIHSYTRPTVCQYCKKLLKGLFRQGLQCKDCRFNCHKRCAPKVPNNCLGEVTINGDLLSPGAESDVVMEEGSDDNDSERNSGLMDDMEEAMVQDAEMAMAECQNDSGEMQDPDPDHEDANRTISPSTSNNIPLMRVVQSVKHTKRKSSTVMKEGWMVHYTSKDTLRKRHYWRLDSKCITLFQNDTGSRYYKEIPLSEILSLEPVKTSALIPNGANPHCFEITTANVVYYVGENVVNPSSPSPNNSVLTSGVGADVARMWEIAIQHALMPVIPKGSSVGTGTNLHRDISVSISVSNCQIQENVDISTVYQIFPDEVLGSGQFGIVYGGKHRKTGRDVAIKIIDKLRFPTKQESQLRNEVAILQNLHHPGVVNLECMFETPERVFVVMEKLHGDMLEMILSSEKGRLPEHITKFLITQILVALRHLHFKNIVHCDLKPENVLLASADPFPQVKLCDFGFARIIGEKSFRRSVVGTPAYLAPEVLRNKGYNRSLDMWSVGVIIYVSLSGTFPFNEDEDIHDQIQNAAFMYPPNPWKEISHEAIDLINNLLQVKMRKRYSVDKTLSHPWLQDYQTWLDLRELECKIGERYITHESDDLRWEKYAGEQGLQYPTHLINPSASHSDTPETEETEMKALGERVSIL

[41] = Oral bioavailability in Cynomolgus monkey at 5 mg/kg; format: ADME, organism-based, Macaca fascicularis; conditions: in vivo
[42] = Oral bioavailability in C57BL/6J mouse at 50 mg/kg; format: ADME, organism-based; conditions: in vivo
[43] = Oral bioavailability in non-naive Beagle dog at 5 mg/kg; format: ADME, organism-based, Canis lupus familiaris; conditions: in vivo

clearance [1]: 11 mL/min/kg
CLhep predicted [2]: < 7.8 mL/min/kg
pIC50 [3]: 8.70
CL free [4]: 367 mL/min/kg
solubility kinetic [5]: 92 µM (≈ 35.6 µg/mL)
bioavailability [6]: 78%
inhibition [7]: 6%
CLhep predicted [8]: < 21 mL/min/kg
CLhep predicted [9]: 14 mL/min/kg
pIC50 [10]: 6.48
bioavailability [11]: 65%
CL free [12]: 656 mL/min/kg
CLhep predicted [13]: 15 mL/min/kg
inhibition [14]: 89%
pIC50 [15]: < 5.70
CLH [16]: < 8.8 mL/min/kg
logD [17]: 1.8
Vd [18]: 2.6 L/kg
half-life [19]: 4.9 h
clearance [20]: 7.1 mL/min/kg
CL free [21]: 95 mL/min/kg
Vd [22]: 1.2 L/kg
CLhep predicted [23]: < 6.2 mL/min/kg
half-life [24]: 0.7 h
half-life [25]: 4.8 h
CLhep predicted [26]: 18 mL/min/kg
CLhep predicted [27]: < 10 mL/min/kg
bioavailability [28]: 49%
CL free [29]: 68 mL/min/kg
pIC50 [30]: 7.26
Vd [31]: 2 L/kg
half-life [32]: 1.5 h
CLhep predicted [33]: 29 mL/min/kg
clearance [34]: 42 mL/min/kg
pIC50 [35]: 7.28
clearance [36]: 6.7 mL/min/kg
Vd [37]: 1.1 L/kg
CLhep predicted [38]: 5.8 mL/min/kg
bioavailability [39]: > 100%
inhibition [40]: 79%
Structure (SMILES): CN1C(=O)[C@](O)(C#Cc2cccc(-n3nc(C(N)=O)c4cccnc43)c2)[C@H]2C[C@H]21
Imax (HEK293): 6%

inhibition [7]: 82%
Structure (SMILES): COc1cc(C(N)=O)nc(-c2cccc(C#C[C@]3(O)CCN(C)C3=O)c2)c1

bioavailability [41]: > 100%
solubility kinetic [5]: 122 µM (≈ 45.8 µg/mL)
inhibition [7]: 59%
bioavailability [42]: 72%
bioavailability [43]: 44%
pIC50 [15]: < 5.70
Vd [18]: 2.9 L/kg
Vd [22]: 0.8 L/kg
Vd [31]: 1.1 L/kg
Vd [37]: 0.5 L/kg
bioavailability [39]: 62%
Structure (SMILES): CN1CC[C@@](O)(C#Cc2cccc(-n3nc(C(N)=O)c4cccnc43)c2)C1=O
Imax (HEK293): 7%
